Experimental data from US11753411B2, “Substituted pyrazolo[1,5-a]pyrimidines as TYK2 pseudokinase ligands” (Ventyx Biosciences, Inc., priority 2019, dated 2023).

Each molecule was assayed on IFN-a/Jak1 Tyk2 (assay: Co-stimulation assay in lysed whole blood: IFNa (JAK1/TYK2) stimulated STAT1 phosphorylation). Settings: Homo sapiens, 20 min, 100 ng/mL IFNa (with 10 ng/mL GM-CSF), pSTAT by flow cytometry.
Assay type: cell-based
Procedure: Example 12: Co-Stimulation Assay in Lysed Whole Blood; JAK2: GM-CSF Stimulated STAT5 Phosphorylation and JAK1/TYK2 Stimulated STAT1 Phosphorylation Assay
Human Blood Lysis Using Abcam's RBC Lysis Buffer
Dilute RBC lysis buffer to 1× in distilled water. Add 2 mL blood to 38 mL of 1×RBC-lysis buffer. Incubate for 15 mins at RT, in dark. Spin at 300 g, 5 mins, to collect the pellet. Re-lyse if necessary. Re-suspend pellet in 5 mL of cRPMI.
Compound and Cytokine Treatment
Aliquot 80 μL of lysed human blood in to wells of 96 deep-well plate. Add 10 μl of (10× conc.) of different concentrations of compounds to all wells except controls (unstained and unstimulated) and mix it with the help of 100 uL multichannel. Add 10 uL of RPMI media in controls. For dilution of compounds and dilution range please refer Appendix. Incubate on water bath or CO2 incubator for 1 hour at 37° C. Add 10 μl of (10× conc.) of cytokine mix (GM-CSF and IFNa) (final conc.10 ng/mL of GM-CSF and 100 ng/mL of IFNa) to each well except unstimulated and unstained controls and incubate further for 20 minutes on water bath at 37° C.
Add 900 μL of prewarmed 1× Fix/Lyse solution (Appendix) and mix it properly using 1000 μl multichannel, incubate further on water bath at 37° C. for 10 minutes (which includes time of addition). Centrifuge at 800×g for 5 minutes at 40° C.; remove 900 uL of supernatant and add 900 μL of 1×PBS. Centrifuge at 800×g for 5 minutes at 40° C., remove 900 μL of supernatant. Wash one more time with 900 μL of PBS (optional) and resuspend pellets in 100 uL of PBS.
Disrupt the pellet by gentle tapping and resuspend in 1000 μL of BD Phosflow Perm Buffer III and incubate plate on ice for 30 minutes. Centrifuge plate at 800×g for 5 minutes at 40° C. Wash two more times with 1000 μL of BD Pharmingen Stain Buffer.
Disrupt the pellet by gentle tapping. Resuspend pellets in 100 uL of Stain Buffer and add 5 μL of pSTAT5_AF488 Ab and 5 uL of pSTAT_PE in all wells except unstained control and mix properly using 200 μl multichannel, incubate overnight at […]. Add 900 μL of wash buffer and centrifuge at 1800 rpm for 3 minutes at 40° C. Wash one more time with 1000 μL of BD Pharmingen Stain Buffer. Finally resuspend the pellet in 300 uL of BD Pharmingen Stain Buffer. Transfer the cells to 96-well v-bottom plate and acquire the cells in Beckman Coulter CytExpert. Acquiring cells in Flow Cytometer: Keep the threshold value to 250 and cell concentration should not exceed 100-500 cells/μL. Acquire at least 5,000-10,000 cells.
RPMI 1640 Complete Medium: RPMI 1640 media+10% FBS.
Cytokine dilution: 1) GM-CSF Stock at 100 ug/mL. Prepare an intermediate dilution of 1 ug/mL by adding 2 uL of stock into 198 uL of cRPMI. Further dilute to 100 ng/mL by adding 100 uL of the intermediate stock to 900 uL of cRPMI. 2) IFNa Stock at 200 ug/mL. Dilute IFNa stock 1:200 by adding 5 uL of stock into the 1000 uL of 100 ng/mL GM-CSF working stock as above to give a combined working stock of 1000 ng/mL of IFNa and 100 ng/mL GM-CSF (10×). Keep it on ice until used.
Lyse/Fix buffer preparation: Dilute 5× Lyse/Fix buffer to 1× using MQ water and keep at 37° C. until used.
BD Phosflow perm buffer III: Keep on ice/fridge.
With `CNc1cc(Nc2cccc3c2OCCO3)nc2c(NC(=O)NC3CC(C#N)C3)cnn12` (centres unmarked) [Compound 27, 1-(3-cyanocyclobutyl)-3-(5-((2,3-dihydrobenzo[b][1,4]dioxin-5-yl)amino)-7-(methylamino)pyrazolo[1,5-a]pyrimidin-3-yl)urea] the IC50 was < 1 µM. For `CNc1cc(Nc2cccc3c2OCCO3)nc2c(NC(=O)NCC(F)(F)F)cnn12` [Compound 99, 1-(5-((2,3-dihydrobenzo[b][1,4]dioxin-5-yl)amino)-7-(methylamino)pyrazolo[1,5-a]pyrimidin-3-yl)-3-(2,2,2-trifluoroethyl)urea], the IC50 was < 1 µM. For `CNc1cc(Nc2cc(F)cc3c2OCCO3)nc2c(NC(=O)NCCOC)cnn12` [Compound 113, 1-(5-((7-fluoro-2,3-dihydrobenzo[b][1,4]dioxin-5-yl)amino)-7-(methylamino)pyrazolo[1,5-a]pyrimidin-3-yl)-3-(2-methoxyethyl)urea], the IC50 was < 1 µM. For `C#Cc1cc(Nc2cc(NC)n3ncc(NC(=O)NC)c3n2)c2c(c1)OCCO2` [Compound 109, 1-(5-((7-ethynyl-2,3-dihydrobenzo[b][1,4]dioxin-5-yl)amino)-7-(methylamino)pyrazolo[1,5-a]pyrimidin-3-yl)-3-methylurea], the IC50 was < 1 µM. For `CNC(=O)Nc1cnn2c(NC)cc(Nc3cc(F)cc(F)c3OC)nc12` [Compound 143, 1-(5-((3,5-difluoro-2-methoxyphenyl)amino)-7-(methylamino)pyrazolo[1,5-a]pyrimidin-3-yl)-3-methylurea], the IC50 was < 1 µM. For `CNc1cc(Nc2cccc3nccnc23)nc2c(NC(=O)NCC#N)cnn12` [Compound 132, 1-(cyanomethyl)-3-(7-(methylamino)-5-(quinoxalin-5-ylamino)pyrazolo[1,5-a]pyrimidin-3-yl)urea], the IC50 was < 1 µM. For `CNC(=O)Nc1cnn2c(NC)cc(Nc3cccc4c3OCO4)nc12` [Compound 153, 1-(5-(benzo[d][1,3]dioxol-4-ylamino)-7-(methylamino)pyrazolo[1,5-a]pyrimidin-3-yl)-3-methylurea], the IC50 was < 1 µM. For `CNc1cc(Nc2cccc3c2OCCO3)nc2c(NC(=O)NCCC(F)F)cnn12` [Compound 179, 1-(3,3-difluoropropyl)-3-(5-((2,3-dihydrobenzo[b][1,4]dioxin-5-yl)amino)-7-(methylamino)pyrazolo[1,5-a]pyrimidin-3-yl)urea], the IC50 was < 1 µM. In the case of `CNc1cc(Nc2cc(C)ccc2OC)nc2c(NC(=O)NCC#N)cnn12` [Compound 129, 1-(cyanomethyl)-3-(5-((2-methoxy-5-methylphenyl)amino)-7-(methylamino)pyrazolo[1,5-a]pyrimidin-3-yl)urea], the IC50 is reported as < 1 µM. With `CNc1cc(Nc2cc(F)cc3c2OCCO3)nc2c(NC(=O)NC3CC3F)cnn12` (centres unmarked) [Compound 37, 1-(5-((7-fluoro-2,3-dihydrobenzo[b][1,4]dioxin-5-yl)amino)-7-(methylamino)pyrazolo[1,5-a]pyrimidin-3-yl)-3-(2-fluorocyclopropyl)urea] the IC50 was < 1 µM. `CNc1cc(Nc2cc(C)cc3c2OCCO3)nc2c(NC(=O)NC3CC3)cnn12` [Compound 79, 1-cyclopropyl-3-(5-((7-methyl-2,3-dihydrobenzo[b][1,4]dioxin-5-yl)amino)-7-(methylamino)pyrazolo[1,5-a]pyrimidin-3-yl)urea] was tested, and the IC50 was 1 to 10 µM. Work on `CNC(=O)Nc1cnn2c(NC)cc(Nc3cc(OC)ccc3OC)nc12` [Compound 67, 1-(5-((2,5-dimethoxyphenyl)amino)-7-(methylamino)pyrazolo[1,5-a]pyrimidin-3-yl)-3-methylurea] yielded an IC50 of 1 to 10 µM. In the case of `CNc1cc(Nc2cc(F)cc3c2OCCO3)nc2c(NC(=O)N[C@@H]3C[C@@H]3C#N)cnn12` [Compound 51, 1-((1R,2S)-2-cyanocyclopropyl)-3-(5-((7-fluoro-2,3-dihydrobenzo[b][1,4]dioxin-5-yl)amino)-7-(methylamino)pyrazolo[1,5-a]pyrimidin-3-yl)urea], the IC50 is reported as < 1 µM. With `[2H]C([2H])([2H])NC(=O)Nc1cnn2c(NC)cc(Nc3cccc4c3OCCO4)nc12` [Compound 144, 1-(5-((2,3-dihydrobenzo[b][1,4]dioxin-5-yl)amino)-7-(methylamino)pyrazolo[1,5-a]pyrimidin-3-yl)-3-(methyl-d3)urea] the IC50 was < 1 µM. With `CNc1cc(Nc2cc(C#N)cc3c2OCCO3)nc2c(NC(=O)N[C@@H]3C[C@@H]3F)cnn12` [Compound 33, 1-(5-((7-cyano-2,3-dihydrobenzo[b][1,4]dioxin-5-yl)amino)-7-(methylamino)pyrazolo[1,5-a]pyrimidin-3-yl)-3-((1R,2S)-2-fluorocyclopropyl)urea] the IC50 was < 1 µM. In the case of `CNC(=O)Nc1cnn2c(NC)cc(Nc3cccc(OC)c3)nc12` [Compound 150, 1-(5-((3-methoxyphenyl)amino)-7-(methylamino)pyrazolo[1,5-a]pyrimidin-3-yl)-3-methylurea], the IC50 is reported as < 1 µM. Work on `CNc1cc(Nc2cccc3c2OCCO3)nc2c(NC(=O)NC3CS(=O)(=O)C3)cnn12` [Compound 125, 1-(5-((2,3-dihydrobenzo[b][1,4]dioxin-5-yl)amino)-7-(methylamino)pyrazolo[1,5-a]pyrimidin-3-yl)-3-(1,1-dioxidothietan-3-yl)urea] yielded an IC50 of 1 to 10 µM. For `CNc1cc(Nc2cccc3c2OCCO3)nc2c(NC(=O)N[C@@H]3C[C@@H]3F)cnn12` [Compound 26, 1-(5-((2,3-dihydrobenzo[b][1,4]dioxin-5-yl)amino)-7-(methylamino)pyrazolo[1,5-a]pyrimidin-3-yl)-3-((1R,2S)-2-fluorocyclopropyl)urea], the IC50 was < 1 µM. In the case of `CNc1cc(Nc2cccc3c2OCCO3)nc2c(NC(=O)NC(C)C#N)cnn12` (centres unmarked) [Compound 119, 1-(1-cyanoethyl)-3-(5-((2,3-dihydrobenzo[b][1,4]dioxin-5-yl)amino)-7-(methylamino)pyrazolo[1,5-a]pyrimidin-3-yl)urea], the IC50 is reported as < 1 µM. In the case of `CNC(=O)Nc1cnn2c(NC)cc(Nc3cccc4c3OCCC4)nc12` [Compound 157, 1-(5-(chroman-8-ylamino)-7-(methylamino)pyrazolo[1,5-a]pyrimidin-3-yl)-3-methylurea], the IC50 is reported as < 1 µM. `CNc1cc(Nc2cccc3occc23)nc2c(NC(=O)NCC#N)cnn12` [Compound 131, 1-(5-(benzofuran-4-ylamino)-7-(methylamino)pyrazolo[1,5-a]pyrimidin-3-yl)-3-(cyanomethyl)urea] was tested, and the IC50 was < 1 µM. With `CNC(=O)Nc1cnn2c(NC)cc(Nc3cccc4ccccc34)nc12` [Compound 160, 1-methyl-3-(7-(methylamino)-5-(naphthalen-1-ylamino)pyrazolo[1,5-a]pyrimidin-3-yl)urea] the IC50 was < 1 µM. For `CNC(=O)Nc1cnn2c(NC)cc(Nc3cncc4ccccc34)nc12` [Compound 91, 1-(5-(isoquinolin-4-ylamino)-7-(methylamino)pyrazolo[1,5-a]pyrimidin-3-yl)-3-methylurea], the IC50 was 1 to 10 µM. `CNC(=O)Nc1cnn2c(NC)cc(Nc3cc(C)ccc3OC)nc12` [Compound 68, 1-(5-((2-methoxy-5-methylphenyl)amino)-7-(methylamino)pyrazolo[1,5-a]pyrimidin-3-yl)-3-methylurea] was tested, and the IC50 was < 1 µM. `CNc1cc(Nc2cc(F)cc3c2OC[C@H](CO)O3)nc2c(NC(=O)N[C@@H]3C[C@@H]3F)cnn12` [Compound 185, 1-(5-(((S)-7-fluoro-2-(hydroxymethyl)-2,3-dihydrobenzo[b][1,4]dioxin-5-yl)amino)-7-(methylamino)pyrazolo[1,5-a]pyrimidin-3-yl)-3-((1R,2S)-2-fluorocyclopropyl)urea] gave an IC50 of 1 to 10 µM. For `CNC(=O)Nc1cnn2c(NC)cc(Nc3cc(F)cc4c3OCCC4)nc12` [Compound 158, 1-(5-((6-fluorochroman-8-yl)amino)-7-(methylamino)pyrazolo[1,5-a]pyrimidin-3-yl)-3-methylurea], the IC50 was < 1 µM.
